In ChEMBL document CHEMBL1201862, “PubChem BioAssay data set” (2004):
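All cell lines were grown in 96-well plates and treated with compound for 48 hours. GI50 marks 50% less growth.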 The source made the active and inactive calls. Cut-off read from the data, not from the text of the source: active = GI50 up to about 1.1 µM and inactive = higher.

Assays:
Assay in all cases: inhibition of tumour cell growth, NCI panel, 48 h
NCI-H23 = test system: NCI-H23
HCT-116 = test system: HCT-116
OVCAR-3 = test system: OVCAR-3
SF-268 = test system: SF-268
ACHN = test system: ACHN
BT-549 = test system: BT-549
SK-MEL-5 = test system: SK-MEL-5
SNB-75 = test system: SNB-75
Malme-3M = test system: Malme-3M
UACC-257 = test system: UACC-257
SK-OV-3 = test system: SK-OV-3
Hs-578T = test system: Hs-578T
SR = test system: SR
RXF 631 = test system: RXF 631
SF-539 = test system: SF-539
NCI-H226 = test system: NCI-H226
SF-295 = test system: SF-295
HT-29 = test system: HT-29
OVCAR-4 = test system: OVCAR-4
PC-3 = test system: PC-3
HOP-18 = test system: HOP-18
RXF 393 = test system: RXF 393
OVCAR-5 = test system: OVCAR-5
HCC 2998 = test system: HCC 2998
M19-MEL = test system: M19-MEL
MDA-N = test system: MDA-N
CAKI-1 = test system: CAKI-1
LXFL 529 = test system: LXFL 529
HOP-92 = test system: HOP-92
IGROV-1 = test system: IGROV-1
DMS-273 = test system: DMS-273
HOP-62 = test system: HOP-62
LOX IMVI = test system: LOX IMVI
TK-10 = test system: TK-10
NCI-H522 = test system: NCI-H522
A498 = test system: A498
XF498 = test system: XF498
MDA-MB-435 = test system: MDA-MB-435
KM-20L2 = test system: KM-20L2
HCT-15 = test system: HCT-15
EKVX = test system: EKVX
DLD-1 = test system: DLD-1
MCF7 = test system: MCF7
SK-MEL-28 = test system: SK-MEL-28
HL-60 = test system: HL-60
NCI-H460 = test system: NCI-H460
K562 = test system: K562
KM12 = test system: KM12
U-251 = test system: U-251
UO-31 = test system: UO-31
RPMI-8226 = test system: RPMI-8226
UACC-62 = test system: UACC-62
OVCAR-8 = test system: OVCAR-8
SNB-78 = test system: SNB-78
SW-620 = test system: SW-620
T47D = test system: T47D
COLO 205 = test system: COLO 205
MOLT-4 = test system: MOLT-4
DMS-114 = test system: DMS-114
SK-MEL-2 = test system: SK-MEL-2
786-0 = test system: 786-0
A549 = test system: A549
DU-145 = test system: DU-145
M14 = test system: M14
SNB-19 = test system: SNB-19
SN12C = test system: SN12C
NCI/ADR-RES = test system: NCI/ADR-RES
CCRF-CEM = test system: CCRF-CEM

Measured: GI50

CCN(CC)CCNc1ccc2ncn3c4ccc(OC)cc4c(=O)c1c23
active: HCT-116 0.592 µM | ACHN 1.05 µM | KM-20L2 0.964 µM | DLD-1 1.08 µM | NCI-H460 0.646 µM | OVCAR-8 0.836 µM | MOLT-4 0.31 µM | NCI/ADR-RES 0.885 µM
1.57 µM: HCT-15
inactive: NCI-H23 4.79 µM | OVCAR-3 7.78 µM | SF-268 2.21 µM | BT-549 16.3 µM | SK-MEL-5 6.07 µM | SNB-75 7.08 µM | Malme-3M 9.12 µM | UACC-257 11.9 µM | SK-OV-3 7.71 µM | Hs-578T 11.1 µM | SR 1.85 µM | RXF 631 1.61 µM | SF-539 4.24 µM | NCI-H226 4.31 µM | SF-295 2.28 µM | HT-29 1.28 µM | OVCAR-4 1.74 µM | PC-3 3.83 µM | HOP-18 17 µM | RXF 393 2.23 µM | OVCAR-5 8.61 µM | HCC 2998 2.78 µM | M19-MEL 3.73 µM | MDA-N 5.18 µM | CAKI-1 5.65 µM | LXFL 529 2.46 µM | HOP-92 4.75 µM | IGROV-1 4.35 µM | DMS-273 1.67 µM | HOP-62 5.21 µM | LOX IMVI 1.51 µM | TK-10 10.4 µM | NCI-H522 2.32 µM | A498 6.7 µM | XF498 5.02 µM | MDA-MB-435 5.21 µM | EKVX 14.9 µM | MCF7 57 µM | SK-MEL-28 14.3 µM | HL-60 3.49 µM | K562 2.75 µM | KM12 1.78 µM | U-251 1.38 µM | UO-31 1.82 µM | RPMI-8226 1.21 µM | UACC-62 16 µM | SNB-78 14 µM | SW-620 1.36 µM | T47D 20 µM | COLO 205 1.49 µM | DMS-114 11.5 µM | SK-MEL-2 9.25 µM | 786-0 2.22 µM | A549 2.91 µM | DU-145 8.28 µM | M14 5.21 µM | SNB-19 3.76 µM | SN12C 2.14 µM | CCRF-CEM 1.34 µM

O=C1CC(C[C@H](O)C2CCCCC2O)CC(=O)N1Cc1ccccc1 (stereo partly drawn)
inactive: NCI-H23 > 100 µM | HCT-116 > 100 µM | OVCAR-3 > 100 µM | SF-268 > 100 µM | ACHN > 100 µM | SK-MEL-5 > 100 µM | SNB-75 > 100 µM | Malme-3M > 100 µM | UACC-257 > 100 µM | SK-OV-3 > 100 µM | SR > 100 µM | RXF 631 > 100 µM | SF-539 > 100 µM | NCI-H226 > 100 µM | SF-295 > 100 µM | HT-29 > 100 µM | OVCAR-4 > 100 µM | HOP-18 > 100 µM | RXF 393 > 100 µM | OVCAR-5 > 100 µM | HCC 2998 > 100 µM | M19-MEL > 100 µM | CAKI-1 > 100 µM | LXFL 529 > 100 µM | IGROV-1 > 100 µM | DMS-273 > 100 µM | HOP-62 > 100 µM | LOX IMVI > 100 µM | TK-10 > 100 µM | NCI-H522 > 100 µM | A498 > 100 µM | XF498 > 100 µM | KM-20L2 > 100 µM | EKVX > 100 µM | DLD-1 > 100 µM | SK-MEL-28 > 100 µM | HL-60 > 100 µM | NCI-H460 > 100 µM | K562 > 100 µM | KM12 > 100 µM | U-251 > 100 µM | UO-31 > 100 µM | UACC-62 > 100 µM | OVCAR-8 > 100 µM | SNB-78 > 100 µM | SW-620 > 100 µM | COLO 205 > 100 µM | MOLT-4 > 100 µM | SK-MEL-2 > 100 µM | 786-0 > 100 µM | A549 > 100 µM | M14 > 100 µM | SNB-19 > 100 µM | SN12C > 100 µM | CCRF-CEM > 100 µM
